62 molecules from a melting point compilation (Tetko et al.; mined from patent text by program, amines drawn as free bases though some values may be those of a salt) can be followed below.

Regarding `CN(C(=O)OC(C)(C)C)c1cc(Oc2ccc(C#N)cc2)ccc1[N+](=O)[O-]`, the melting point was in the range of 141 to 143 °C. Take `O=C1c2ccccc2CCN1O`: the melting point fell in the range of 95 to 96 °C. Molecule `CC(NC(Nc1cc(F)cc(C(F)(F)F)c1)=C(C#N)S(C)(=O)=O)C(C)(C)C` (configuration not stated) registered a melting point of 183 to 185 °C. The figure for `CCOC(=O)c1cn(-c2ccc(F)c(NC(C)(C)C)n2)c2c(Br)c(F)c(F)cc2c1=O` is 192 to 195 °C. In the case of `Cc1ccc(CCCO)c(NCc2ccc3nc(NCCCN4CCOCC4)n(Cc4nc(C)c(C)nc4C)c3c2)c1` it was 120 °C; in that of `COCCCCCCCCCCCCCCSCCC(=O)OC`, 31 to 32 °C; in that of `CC(Br)(CBr)CS(=O)(=O)Oc1c(Cl)cccc1Cl` (configuration not stated), 74 to 76 °C.

Turning to `CC(=O)N1C(=O)C(C(=O)c2cccs2)c2ccccc21` (configuration not stated), the melting point fell in the range of 139 to 140 °C. Molecule `CCNCC1CN(c2c(F)cc3c(=O)c(C(=O)O)cn(-c4ccc(F)cc4F)c3c2F)CCO1` (configuration not stated) showed a melting point of 226 to 229 °C.

Molecule `CCOC(=O)c1cccc(CSc2nc(-c3ccc(OC)cc3)c(-c3ccc(OC)cc3)[nH]2)c1` showed a melting point of 147 to 149 °C. The figure for `O=C(CCN1C[C@@H](O)[C@H](Oc2ccccc2)C1)c1ccc(F)cc1` (relative stereo) is 77 to 80 °C.

`O=C(Nc1cc(-c2ccc(Cl)cc2)no1)c1c(Cl)cccc1Cl`: the melting point is 208 to 209 °C. The figure for `CCOC(=O)C(CC=Cc1ccccc1)(NC(C)=O)C(=O)OCC` is 70 to 75 °C; for `Cc1cccc(-c2nc(N)sc2-c2ccnc(-c3ccc(C(=O)NC4CCOCC4)cc3)c2)n1` it is 230 to 232 °C; for `CC(C)N1C(=O)c2cccc(Cl)c2N(C#N)S1(=O)=O` it is 123 to 124 °C. Consider `COc1cc2c(cc1Nc1ncc(Cl)c(Nc3ccccc3S(=O)(=O)C(C)C)n1)CCN(CC(=O)N1CCN(C)CC1)CC2`, for which the melting point stood at 170 °C.

Consider `CCOC(=O)c1ncn2c1CN(Cc1ccc(OC)cc1OC)C(=O)c1cc(F)ccc1-2`, for which the melting point fell in the range of 159 to 160 °C. The molecule `CNC(=S)NCCCSc1ncccn1` displayed a melting point of 120 to 121 °C. The figure for `CN(c1cccc(-c2ccnc3c(C(=O)c4cccs4)cnn23)c1)S(C)(=O)=O` is 169 to 170 °C. The figure for `N#Cc1cc(-c2ccoc2)c2ccc(COc3cc(F)cc(-c4cccs4)c3)cc2n1` is 181 to 183 °C; for `COCCC1=C(C)C(=Cc2ccc(S(N)(=O)=O)cc2)c2ccc(OC)cc21` it is 140 °C. For the molecule `CC1(C)OC(=O)C(Oc2ccc(F)c(F)c2)=C1c1ccc(S(C)(=O)=O)cc1`, the melting point is 93 to 95 °C. The figure for `O[C@H]1COC(c2ccc3c(c2)OCO3)=N[C@@H]1c1ccccc1` (racemic) is 137 °C. Consider `Cc1nc2c(N)nc3ccccc3c2n1CCCCNS(=O)(=O)c1ccccc1`, for which the melting point lay within 215 to 216 °C. In the case of `Cc1nc(NC(=O)OCC[Si](C)(C)C)cs1` it was 101 to 103 °C; in that of `NCCN1CCN(c2ncc3ncnc(Nc4ccc(F)c(Cl)c4)c3n2)CC1`, 175 to 180 °C. As for `CSc1ccc(-n2cnc3ccc(-c4nnc(C)o4)cc32)cc1`, the melting point was 202 to 204 °C. In the case of `CCOc1nc(NCc2ccc(C)o2)nc(Nc2ccc(O)cc2)n1` it was 40 to 42 °C. In the case of `CN(C)c1ccc(C(=O)c2ccncc2)cc1` it was 122 to 124 °C; in that of `COc1cc(CNC(=O)c2cc3c(=O)n(CC4CCCCC4)c(=O)n(C)c3s2)ccn1`, 167 to 210 °C.

Molecule `Cc1oc(C)c(C(=O)OC2CC(C)(C)NC(C)(C)C2)c1C` had a melting point of 54 to 58 °C. For `CCOC(=O)C1(N)N=C(c2ccccc2Cl)c2cc(CC)sc2-n2c(C)nnc21` (configuration not stated), the melting point is 180 to 181 °C. The figure for `c1nc(SCC2CCCCC2)n[nH]1` is 74 to 78 °C; for `O=C(N[C@H]1CC[C@H](CCN2CCN(c3nccc4c3OCC4)CC2)CC1)c1ccc(-c2ccccc2)cc1` it is 220 °C. The figure for `CN(C)c1ccc(CNc2ccc(C(F)(F)F)cc2[N+](=O)[O-])cc1` is 158 to 160 °C; for `O=C(O)/C=C\C(=O)Nc1ccc2c(=O)n3c(nc2c1)C(=Cc1ccccc1)CC3` it is 210 to 230 °C; for `CCC1(CC)OC(=S)Nc2ccc(-c3cccc(Cl)c3)cc21` it is 148 to 150 °C.

Regarding `CC1(C)CCN(Cc2ccc(COc3cccc4c3CN(C3CCC(=O)NC3=O)C4=O)cc2)CC1` (configuration not stated), the melting point is 168 to 170 °C. With `C[C@H](Nc1nc(Nc2cccc(NS(C)(=O)=O)c2)nc2[nH]cnc12)C(C)(C)C`, the melting point lay in the range of 150 to 153 °C. Molecule `C=CCn1c(NC=O)nc(N2CCc3ccccc3CC2)c(C#N)c1=O` yielded a melting point of over 200 °C. Regarding `Clc1cn2cc(Br)ccc2n1`, the melting point fell in the range of 155 to 159 °C. `CCCOc1ccccc1-c1cc(C)c(C#N)c(=O)[nH]1` had a melting point of 180 °C. In the case of `CCN(CC)Cc1ccnc(F)c1C=NO` it was 97 to 99 °C; in that of `CCCc1nn(C)c2c(OCCOc3ccc(CC(OCC)C(=O)OCC)cc3)nc(-c3ccccc3)nc12` (configuration not stated), 80 to 82 °C; in that of `O=C1C=CC(O)(c2ccccn2)C=C1`, 116 to 117 °C.

In the case of `Fc1ccc([C@H]2CC[C@H](N3CCC(Cc4cc(F)ccc4F)CC3)CC2)cc1`, the melting point lay in the range of 80 to 81 °C. For `Cc1ccnc(NC#N)n1`, the melting point is 203 °C. The figure for `CC(=O)c1ccc2c(c1)N(C(=O)OC(C)(C)C)CCC2` is 125 to 127 °C; for `O=C1NC(=S)SC1=Cc1ccc2c(c1)N(CCc1cccc(Cl)c1)C(=O)CO2` it is 280 to 282 °C. The figure for `CC1=CC(O)(c2nc3ccccc3s2)C=C(C)C1=O` is 132 °C. The molecule `COc1c(C(=O)Nc2ccc(N(C(C)=O)S(C)(=O)=O)cc2)cc(N2CCC(=O)NC2=O)cc1C(C)(C)C` yielded a melting point of 228 to 229 °C. With `Cc1cc(C)c2c(c1)c(-c1ccccc1Cl)c(NC(=O)Nc1ccc(F)cc1F)c(=O)n2C`, the melting point lay in the range of 225 to 227 °C. The figure for `CC(C)(C)c1ccccc1C(=O)O` is 38.5 to 40.5 °C; for `CNc1nc(C#N)c(C#N)nc1NC(C)(C)C` it is over 250 °C. In the case of `CN1C(=O)CSc2ccc(Cl)cc21`, the melting point lay in the range of 119 to 121 °C. In the case of `CN1CCN(c2ccc(Nc3nc(N)c(C(=O)c4c(Cl)cc(Br)c(N)c4Cl)s3)cc2)CC1` it was 180 to 182 °C; in that of `NS(=O)(=O)c1ccc(-c2coc(=O)n2-c2ccc(F)cc2)cc1`, 211 to 213 °C. In the case of `O=C1N(Cc2cnccn2)c2ccccc2C12COc1cc3c(cc12)CCO3` (configuration not stated) it was 143 to 144 °C. The figure for `CC(C)(C#N)c1ccc2nc(O)nnc2c1` is 183 to 185 °C; for `Cc1ccc([C@@H]2c3c(C)c(N4C(=O)CC(c5ccc(F)cc5)CC4=O)c(C)c(C)c3OC2(C)C)cc1` it is 151 to 154 °C.

`CC(C)=CC(=O)Nc1ccccc1CCN1CCN(c2nsc3ccccc23)CC1` showed a melting point of 52 °C. Consider `CC(C)c1cccc(C(C)C)c1NC(=O)NCC1=CCCc2ccccc21`, for which the melting point was 170 to 171 °C.
